Reference: patent publication US10683273B2, “Compounds as DNA probes, methods and applications thereof” (JAWAHARLAL NEHRU CENTRE FOR ADVANCED SCIENTIFIC RESEARCH, priority 2015, dated 2020)

How the values were obtained:
[1] = test system: d(ATAT)5; experiment: UV-melting (UV-Tm) of DNA duplex with probe; format: binding; details: d(ATAT)5 with QCy-DT vs duplex alone
Description: (§1) The UV-vis absorption and emission spectra are recorded on Agilent Technologies Cary series UV-vis-NIR absorbance and Cary eclipse fluorescence spectrophotometers, respectively. Thermal denaturation (UV-melting) studies are carried out on Cary 5000 UV-vis-NIR spectrophotometer equipped with Cary temperature controller in the range of 10° C. to 90° C. with a ramp rate of 1° C./min. The variable temperature/wavelength mode is used. Absorption is monitored at 260 nm with regular 5° C. intervals. Melting temperatures (Tm) of DNA samples are calculated from the first derivatives of the absorption vs. temperature curves (thermal denaturation or melting curves) obtained by monitoring at 260 nm.
(§2) To understand the effect of QCy-DT binding to DNA on the thermal stability of DNA, temperature-dependent UV-melting studies (UV-Tm) is performed on different [QCy-DT+DNA] complexes. […] Therefore, the binding affinity, fluorescence quantum yield, and UV-Tm data validated the preferential recognition of AT-rich DNA by QCy-DT probe compared to GC-rich DNA.

[2] = test system: Drew AT; experiment: UV-melting (UV-Tm) of DNA duplex with probe; format: binding; details: Drew AT with QCy-DT vs duplex alone
Description: as §1, §2

[3] = test system: HeLa cells; experiment: Fluorescence study in fixed cells; format: cell-based; details: 0.5 and 1 μM, Hoechst as control
Description: HeLa cells are grown on the cover slip for about 24 hours in DMEM medium supplemented with 10% fetal bovine serum at about 37° C. in a humidified atmosphere containing 5% CO2 till 80% confluency is achieved. Then cells are fixed with 4% paraformaldehyde in PBS for 10 min. After rinsing twice with PBS, HeLa cells are treated separately with probe QCy-DT at various concentrations (0.5 μM and 1 μM) for 10 min at room temperature. Subsequently, cover slips are incubated with Hoechst 33258 at 10 μg/mL for nuclear staining. Fluorescence images are taken by Carl Zeiss Laser Scanning Microscope (LSM510 META).
In order to check its permeability, cellular uptake studies are carried out in live and fixed conditions of MCF-7 and HeLa cells, respectively. First, MCF-7 cells are incubated with probe QCy-DT (0.5 and 1 μM) without fixing, and live cell imaging is conducted using Carl Zeiss fluorescence microscope as described above. […] Next, HeLa cells are fixed and incubated with QCy-DT (0.5 and 1 μM) along with Hoechst as the control nuclear staining dye. […] Therefore, staining results obtained with live and fixed cells confirmed high cell permeability, efficiency (low staining concentration of 1 μM), and preferential targeting of cell nuclear DNA.

[4] = test system: Drew-AT; experiment: Fluorescence quantum yield in presence of DNA; format: binding
Description: (§3) Cresyl violet perchlorate in ethanol (ϕ=0.54) is used as the standard for the fluorescence quantum yield calculation using the absorption of the test sample. The emission spectral area is obtained in the 550-800 nm regions. Dilute solutions (10^−6 M) are used to minimize reabsorption effects of the dyes. Quantum yields are determined using the following equation, ϕs=ϕr(Fs/Fr)×(Ar/As)×(ns^2/nr^2)
(§4) Where, ϕr and ϕs are the quantum yield of reference and sample respectively, Fr and Fs are the integrated intensities (areas) of standard and sample spectra, nr and ns are the refractive indices of the reference and sample solution, Ar and As are the absorbance intensities of reference and sample respectively.

[5] = test system: (A-T)20; experiment: Fluorescence quantum yield in presence of DNA; format: binding; details: in presence of (A-T)20
Description: as §3, §4

[6] = test system: d(ATAT)5; experiment: Fluorescence quantum yield in presence of DNA; format: binding; details: in presence of D(ATAT)5
Description: as §3, §4

[7] = test system: (D1)mix; experiment: Fluorescence quantum yield in presence of DNA; format: binding
Description: as §3, §4

[8] = test system: DM3 (5′-AAAA-3′); experiment: Sequence-specific fluorescence enhancement, variable (A/T)4 core; format: binding; details: QCy-DT 2 μM, DM3 4 μM
Description: (§5) All the chemicals, reagents, single-stranded oligos (dA20, dT20, dG20, dC20), self-complementary oligos {d(ATAT)5, (D1)mix, Drew-AT, Calf-Thymus DNA (CT-DNA), (DM1, DM2, DM3, DM4, DM5, DM6 and DM7)}, RNA, were purchased from Sigma-Aldrich. ^1H and ^13C NMR spectra were recorded on a Bruker AV-400 MHz spectrometer with chemical shifts reported as parts per million (ppm) (in DMSO-d6, tetramethylsilane as an internal standard) at 20° C. UV-vis absorption and emission spectra were measured in quartz cuvettes of 1 cm path length. High resolution mass spectra (HRMS) were obtained on Agilent Technologies 6538 UHD Accurate-Mass Q-TOF LC/MS spectrometer. All biophysical studies (UV-vis, fluorescence and Cirular dichroism) are carried out at the concentration 0-5 μM of probe, volume=500 μL, temperature=25° C. and time of incubation=2 minutes. HeLa cells and MCF7 cells used in the biological studies are obtained from “Molecular reproduction, development and genetics lab, Indian institute of science, Bangalore, India”
(§6) Stock solutions of QCy-DT are prepared in double-distilled (dd) water in the order of 10^−3 M and stored at about −10° C. DNA stock solutions are prepared by dissolving oligo samples in double-distilled (dd) water in the order of 10^−4 M. Solutions of DNA duplexes are prepared in Tris-HCl (100 mM, pH=7.4) buffer solution by mixing complementary DNA strands in equimolar concentration. This solution is then subjected to annealing by heating up to about 85° C. for about 15 minutes, subsequently cooled to room temperature for about 7 hours and stored in the refrigerator (about 4° C.) for about 4 hours.
as §1
(§7) Almost about ˜4-folds difference in fluorescence enhancement of QCy-DT in the presence of (A-T)20 compared to self-complementary, alternative AT-base pair containing d(ATAT)5 duplex is observed, although both contain total 20 AT base pairs (FIG. 3 and FIG. 12a). […] There are no NIR-fluorescence probes that sequence-specifically recognize the minor groove of AT-rich DNA. […] Further, QCy-DT detects all AT-rich sequences by showing varied fluorescence/sensitivity. […]

[9] = test system: DM4 (5′-AATT-3′); experiment: as above; format: binding; details: QCy-DT 2 μM, DM4 4 μM
Description: as §5, §6, §1, §7

[10] = test system: DM1 (5′-ATAT-3′); experiment: as above; format: binding; details: QCy-DT 2 μM, DM1 4 μM
Description: as §5, §6, §1, §7

For `C[n+]1c(/C=C/c2ccc(O)c(/C=C/c3sc4ccccc4[n+]3C)c2)sc2ccccc21` [QCy-DT, quinone cyanine-dithiazole], the ΔTm [1] was 3.5 °C, the ΔTm [2] was 4.2 °C and the nuclear staining [3] was “selective staining of the cell nucleus, and remarkable co-localization with Hoechst dye”. The “Quantum Yield (ΦF)” value [4] was ~0.25, the “Quantum Yield (ΦF)” value [5] was ~0.32 and the “Quantum Yield (ΦF)” value [6] was 0.08. For the same compound, the “Quantum Yield (ΦF)” value [7] was 0.08, the fluorescence enhancement [8] was ~40 fold and the fluorescence enhancement [9] was ~72 fold. It also gave a fluorescence enhancement [10] of ~8 fold.
